Measured values reported in article PMC11318023, “Discovery of VU6008677: A Structurally Distinct Tricyclic M4 Positive Allosteric Modulator with Improved CYP450 Profile” (ACS Medicinal Chemistry Letters, 2024).
Read-outs that look alike come from different tables or passages of the source.

Tests used:
[1] = biological target: T1, human M4 (hM4) (Homo sapiens, UniProt P08173); assay: Calcium mobilization assay, hM4/Gqi5-CHO cells, with EC20 acetylcholine (PAM); details: for hM4 pEC50 / EC50 / hM4 %ACh Max: hM4/Gqi5-CHO cells; for EC50: read-out: hM4 EC50; for hM4 %ACh Max: maximum response
T1 sequence (P08173 1-479): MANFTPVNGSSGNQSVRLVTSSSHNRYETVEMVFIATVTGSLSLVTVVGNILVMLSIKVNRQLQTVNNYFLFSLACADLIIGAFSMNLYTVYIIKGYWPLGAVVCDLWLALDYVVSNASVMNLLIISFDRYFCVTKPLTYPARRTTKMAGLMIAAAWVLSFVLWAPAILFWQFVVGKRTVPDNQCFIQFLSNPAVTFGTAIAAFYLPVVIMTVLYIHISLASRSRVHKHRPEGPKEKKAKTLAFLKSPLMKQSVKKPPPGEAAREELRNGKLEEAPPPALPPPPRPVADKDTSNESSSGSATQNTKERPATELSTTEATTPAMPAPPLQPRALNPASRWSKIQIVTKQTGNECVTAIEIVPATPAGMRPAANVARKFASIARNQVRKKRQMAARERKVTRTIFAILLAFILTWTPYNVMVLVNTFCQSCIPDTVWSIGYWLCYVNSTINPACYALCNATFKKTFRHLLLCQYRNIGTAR

[2] = biological target: T2, human M2 (hM2) (Homo sapiens, UniProt P08172); assay: Calcium mobilization assay, hM2/Gqi5-CHO cells, with EC20 acetylcholine; assay type: cell-based
T2 construct: expressed in transfected cells
T2 sequence (P08172 1-466): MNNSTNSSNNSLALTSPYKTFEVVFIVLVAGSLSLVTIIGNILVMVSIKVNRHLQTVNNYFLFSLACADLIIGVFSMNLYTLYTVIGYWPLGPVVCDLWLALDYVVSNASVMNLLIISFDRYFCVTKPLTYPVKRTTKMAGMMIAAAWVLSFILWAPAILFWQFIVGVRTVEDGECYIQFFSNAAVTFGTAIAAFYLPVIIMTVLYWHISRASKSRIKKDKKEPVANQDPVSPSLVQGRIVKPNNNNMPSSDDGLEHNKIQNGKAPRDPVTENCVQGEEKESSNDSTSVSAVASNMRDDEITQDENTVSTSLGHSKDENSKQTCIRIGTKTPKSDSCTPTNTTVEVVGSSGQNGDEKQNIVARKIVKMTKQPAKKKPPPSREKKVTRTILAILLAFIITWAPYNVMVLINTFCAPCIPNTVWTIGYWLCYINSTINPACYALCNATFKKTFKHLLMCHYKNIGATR
Text: buffer remained in the cell plates. […] After establishment of a […]

[3] = biological target: CYP 2C9 (Homo sapiens, UniProt P11712); assay: CYP450 inhibition in pooled human liver microsomes, CYP-specific probe substrates; assay type: in vitro ADME; details: pooled HLM, NADPH, CYP-specific probe substrate
Sequence of CYP 2C9 (P11712 whole entry): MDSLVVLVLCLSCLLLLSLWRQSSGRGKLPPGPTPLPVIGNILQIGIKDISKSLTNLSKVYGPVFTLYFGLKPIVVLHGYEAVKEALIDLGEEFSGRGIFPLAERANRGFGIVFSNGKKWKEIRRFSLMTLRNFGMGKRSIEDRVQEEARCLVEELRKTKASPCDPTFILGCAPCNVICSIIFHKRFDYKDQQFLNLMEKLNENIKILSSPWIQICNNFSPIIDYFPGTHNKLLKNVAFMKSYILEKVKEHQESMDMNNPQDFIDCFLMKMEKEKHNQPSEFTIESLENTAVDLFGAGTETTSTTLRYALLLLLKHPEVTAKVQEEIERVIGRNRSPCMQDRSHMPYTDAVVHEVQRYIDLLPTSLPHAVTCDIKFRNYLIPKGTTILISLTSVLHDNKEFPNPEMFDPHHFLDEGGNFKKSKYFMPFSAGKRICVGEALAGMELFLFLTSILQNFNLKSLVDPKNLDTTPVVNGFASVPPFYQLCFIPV

[4] = biological target: T3, CYP 1A2 (Homo sapiens, UniProt P05177); assay: as above; assay type: in vitro ADME; details: for IC50: pooled HLM, NADPH, CYP-specific probe substrate
T3 sequence (P05177 1-516): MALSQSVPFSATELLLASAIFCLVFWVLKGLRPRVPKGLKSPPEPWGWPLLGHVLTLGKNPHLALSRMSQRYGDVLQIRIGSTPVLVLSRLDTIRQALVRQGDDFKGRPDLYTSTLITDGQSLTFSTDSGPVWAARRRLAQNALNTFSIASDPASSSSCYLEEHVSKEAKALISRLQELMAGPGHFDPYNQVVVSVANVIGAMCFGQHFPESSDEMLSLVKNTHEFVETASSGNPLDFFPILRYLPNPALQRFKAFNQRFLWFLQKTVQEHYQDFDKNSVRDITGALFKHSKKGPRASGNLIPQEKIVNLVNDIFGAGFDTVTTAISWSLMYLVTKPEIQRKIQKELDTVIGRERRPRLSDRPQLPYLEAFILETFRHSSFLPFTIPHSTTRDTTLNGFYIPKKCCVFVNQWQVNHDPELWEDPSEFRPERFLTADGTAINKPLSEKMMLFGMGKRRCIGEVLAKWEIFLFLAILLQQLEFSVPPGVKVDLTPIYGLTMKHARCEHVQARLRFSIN

[5] = Binding in plasma from human, equilibrium dialysis; assay type: in vitro ADME; details: for fraction unbound at 6 h, 5 µM: human, plasma, read-out: human fu,plasma
[6] = Binding in brain homogenate from rat, equilibrium dialysis; assay type: in vitro ADME; details: rat brain homogenates; for fraction unbound at 6 h, 1 µM: rat, brain homogenate, read-out: rat fu,brain
[7] = Intrinsic clearance in human liver microsomes (substrate depletion), predicted hepatic clearance; assay type: in vitro ADME; details: for CLint scaled at 1 µM: pH 7.4, human liver microsomes; for CLhep, human (predicted hepatic clearance): predicted from human microsomal CLint
[8] = biological target: CYP 2D6 (Homo sapiens, UniProt P10635); assay: CYP450 inhibition in pooled human liver microsomes, CYP-specific probe substrates; assay type: in vitro ADME; details: pooled HLM, NADPH, CYP-specific probe substrate
Sequence of CYP 2D6 (P10635 whole entry): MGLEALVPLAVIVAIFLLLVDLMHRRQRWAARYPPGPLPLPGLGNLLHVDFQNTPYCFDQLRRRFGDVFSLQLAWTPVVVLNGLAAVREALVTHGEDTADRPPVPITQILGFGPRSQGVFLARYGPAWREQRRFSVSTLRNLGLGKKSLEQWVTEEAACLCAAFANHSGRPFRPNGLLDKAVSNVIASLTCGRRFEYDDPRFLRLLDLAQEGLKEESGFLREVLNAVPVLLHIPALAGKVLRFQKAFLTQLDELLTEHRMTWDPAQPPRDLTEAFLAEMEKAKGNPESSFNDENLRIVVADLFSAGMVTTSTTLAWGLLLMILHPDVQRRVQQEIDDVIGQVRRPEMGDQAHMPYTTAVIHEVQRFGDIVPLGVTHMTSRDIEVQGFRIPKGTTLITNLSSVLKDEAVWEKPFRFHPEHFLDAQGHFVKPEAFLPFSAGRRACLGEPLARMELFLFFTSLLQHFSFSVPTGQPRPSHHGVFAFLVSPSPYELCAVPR

[9] = Intrinsic clearance in rat liver microsomes (substrate depletion), predicted hepatic clearance; assay type: in vitro ADME; details: for CLint scaled at 1 µM: pH 7.4, rat liver microsomes; for CLhep, rat (predicted hepatic clearance): predicted from rat microsomal CLint
[10] = Binding in plasma from rat, equilibrium dialysis; assay type: in vitro ADME; details: read-out: rat fu,plasma
[11] = biological target: CYP 3A4 (Homo sapiens, UniProt P08684); assay: CYP450 inhibition in pooled human liver microsomes, CYP-specific probe substrates; assay type: in vitro ADME; details: pooled HLM, NADPH, CYP-specific probe substrate
Sequence of CYP 3A4 (P08684 whole entry): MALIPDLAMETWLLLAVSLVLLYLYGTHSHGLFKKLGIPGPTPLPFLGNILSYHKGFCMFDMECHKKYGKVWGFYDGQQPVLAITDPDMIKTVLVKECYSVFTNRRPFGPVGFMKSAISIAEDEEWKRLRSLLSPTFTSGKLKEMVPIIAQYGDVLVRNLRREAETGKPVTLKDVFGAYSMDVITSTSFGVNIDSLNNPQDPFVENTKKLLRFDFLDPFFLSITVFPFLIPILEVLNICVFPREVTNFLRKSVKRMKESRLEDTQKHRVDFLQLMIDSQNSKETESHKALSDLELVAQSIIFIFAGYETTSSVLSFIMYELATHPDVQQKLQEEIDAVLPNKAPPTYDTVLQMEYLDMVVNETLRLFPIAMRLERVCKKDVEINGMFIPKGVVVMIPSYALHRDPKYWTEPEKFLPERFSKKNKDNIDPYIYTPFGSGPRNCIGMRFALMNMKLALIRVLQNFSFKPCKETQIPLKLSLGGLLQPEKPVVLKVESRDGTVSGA

[12] = calcium mobilization, EC20 acetylcholine
[13] = calcium mobilization, EC20 fixed concentration of acetylcholine

## Cc1nc2oc3c(N(C)C)ncnc3c2c(C)c1Cl.Cl [Compound 14e]
[1]; [12]
  hM4 pEC50: 5.86
[1]; [13]
  EC50: 1.4 µM

## Cc1nc2oc3c(NCc4ccc(C(C)(C)O)cc4)ncnc3c2c(C)c1Cl [Compound 14c]
[1]; [12]
  hM4 pEC50: 5.93
  hM4 %ACh Max: 62%
[1]; [13]
  EC50: 1.2 µM

## Cc1c(Cl)cnc2sc3c(NC4(C)CC4)ncnc3c12 [Compound 15b]
[1]; [12]
  hM4 pEC50: 6.39
  hM4 %ACh Max: 51%
[1]; [13]
  EC50: 0.4 µM

## Cc1c(Cl)cnc2sc3c(N4CCCC4)ncnc3c12 [Compound 15a]
[1]; [12]
  hM4 pEC50: 5.22
  hM4 %ACh Max: 45%
[1]; [13]
  EC50: 6 µM

## COc1ccc(CNc2nncc3c2sc2nc(C)c(Cl)c(C)c23)cc1F [Compound 22a]
[1]; [12]
  hM4 pEC50: 5.88
  hM4 %ACh Max: 69%
[1]; [13]
  EC50: 1.3 µM

## Cc1nc2sc3c(NCc4ccc(OC(F)F)cc4)nncc3c2c(C)c1Cl [Compound 22e]
[1]; [12]
  hM4 pEC50: 6.27
  hM4 %ACh Max: 41%

## Cc1nc2oc3c(NC4CC4(C)C)ncnc3c2c(C)c1Cl.Cl (stereo not shown) [Compound 14p]
[2]
  EC50: 2300 nM
  hM2 % ACh Max: 39%
[3]
  IC50: > 30000 nM
[4]
  IC50: 320 nM
[5]
  fraction unbound at 6 h, 5 µM: 0.004
[6]
  fraction unbound at 6 h, 1 µM: 0.002
[7]
  CLint scaled at 1 µM: 168 mL/min/kg
  CLhep, human (predicted hepatic clearance): 19 mL/min/kg
[8]
  IC50: > 30000 nM
[9]
  CLint scaled at 1 µM: 467 mL/min/kg
  CLhep, rat (predicted hepatic clearance): 61 mL/min/kg
[10]
  fraction unbound at 6 h, 5 µM: 0.038
[11]
  IC50: > 30000 nM

## Cc1c(Cl)cnc2sc3c(NCc4ccncc4)ncnc3c12 [Compound 15d]
[1]; [12]
  hM4 pEC50: 6.50
  hM4 %ACh Max: 84%
[1]; [13]
  EC50: 0.32 µM

## Cc1nc2sc3c(NC4CC4)ncnc3c2c(C)c1Cl.Cl [Compound 13l]
[2]
  EC50: 5000 nM
  hM2 % ACh Max: 49%
[3]
  IC50: > 15800 nM
[4]
  IC50: < 100 nM
[6]; fraction unbound
  rat fu,brain: 0.001
[6]
  fraction unbound at 6 h, 1 µM: 0.001 to 0.005
[7]
  CLint scaled at 1 µM: 78 mL/min/kg
  CLhep, human (predicted hepatic clearance): 17 mL/min/kg
[8]
  IC50: > 30000 nM
[9]
  CLint scaled at 1 µM: 423 mL/min/kg
  CLhep, rat (predicted hepatic clearance): 60 mL/min/kg
[10]
  fraction unbound at 6 h, 5 µM: ≤ 0.01
[11]
  IC50: 15800 nM

## Cc1nc2sc3c(N4CC5CC5C4)nncc3c2c(C)c1Cl.Cl (stereo not shown) [Compound 22c]
[1]; [12]
  hM4 pEC50: 6.29
  hM4 %ACh Max: 73%
[1]; [13]
  EC50: 0.51 µM

## Cc1c(Cl)cnc2sc3c(N4CC(C#N)C4)ncnc3c12 [Compound 15f]
[2]
  hM2 EC50: inactive
[3]
  IC50: > 30000 nM
[4]
  IC50: 360 nM
[4]; vs ML253
  fold improvement of CYP 1A2 inhibition compared with ML253: 3 fold
[5]
  fraction unbound at 6 h, 5 µM: 0.02
[6]
  fraction unbound at 6 h, 1 µM: 0.002
[7]
  CLint scaled at 1 µM: 224 mL/min/kg
  CLhep, human (predicted hepatic clearance): 19 mL/min/kg
[8]
  IC50: > 30000 nM
[9]
  CLint scaled at 1 µM: 642 mL/min/kg
  CLhep, rat (predicted hepatic clearance): 63 mL/min/kg
[10]
  fraction unbound at 6 h, 5 µM: 0.171
[11]
  IC50: > 30000 nM

## Cc1nc2oc3c(NC4CC4)ncnc3c2c(C)c1Cl.Cl [Compound 14o]
[2]
  hM2 EC50: inactive
[3]
  IC50: ≥ 30000 nM
[4]
  IC50: < 100 nM
[5]; fraction unbound
  human fu,plasma: 0.007
[5]
  fraction unbound at 6 h, 5 µM: < 0.01
[6]
  fraction unbound at 6 h, 1 µM: 0.017
[7]
  CLint scaled at 1 µM: 37 mL/min/kg
  CLhep, human (predicted hepatic clearance): 13 mL/min/kg
[8]
  IC50: ≥ 30000 nM
[9]
  CLint scaled at 1 µM: 175 mL/min/kg
  CLhep, rat (predicted hepatic clearance): 50 mL/min/kg
[10]
  fraction unbound at 6 h, 5 µM: 0.06
[11]
  IC50: ≥ 30000 nM

## Cc1nc2sc3c(NC4CC(c5ccncc5)C4)ncnc3c2c(C)c1Cl.Cl (stereo not shown) [Compound 13h]
[1]; [12]
  hM4 pEC50: 5.82
  hM4 %ACh Max: 84%
[1]; [13]
  EC50: 1.5 µM

## Cc1ncc(CNc2ncnc3c2sc2nc(C)c(Cl)c(C)c23)cn1.Cl [Compound 13b]
[1]; [12]
  hM4 pEC50: < 5.00
  hM4 %ACh Max: 75%
[1]; [13]
  EC50: > 10 µM

## Cc1nc2sc3c(N4CC5(COC5)C4)ncnc3c2c(C)c1Cl.Cl [Compound 13d]
[1]; [12]
  hM4 pEC50: <5.00
  hM4 %ACh Max: 71%
[1]; as quoted in text in μM, EC20 acetylcholine
  EC50: > 10 µM
[1]; [13]
  EC50: > 10 µM

## Cc1nc2sc3c(NCC4CCC4)nncc3c2c(C)c1Cl.Cl [Compound 22f]
[1]; [12]
  hM4 pEC50: 6.40
[1]; relative to the comparator analogue (13g, 13k vs 13l; 22f vs 22j)
  fold loss (decrease) in hM4 potency: ~5 fold

## COCCCNc1nncc2c1sc1nc(C)c(Cl)c(C)c12.Cl [Compound 22g]
[1]; [12]
  hM4 pEC50: 6.72
  hM4 %ACh Max: 67%
[1]; [13]
  EC50: 0.19 µM

## COc1ccc(CNc2ncnc3c2oc2nc(C)c(Cl)c(C)c23)cc1F.Cl [Compound 14a]
[1]; [12]
  hM4 pEC50: <5.00
  hM4 %ACh Max: 49%
[1]; [13]
  EC50: > 10 µM

## Cc1ncc(CNc2ncnc3c2sc2ncc(Cl)c(C)c23)cn1.Cl [Compound 15c]
[1]; [12]
  hM4 pEC50: 6.34
  hM4 %ACh Max: 71%
[1]; [13]
  EC50: 0.45 µM

## Cc1c(Cl)cnc2sc3c(NC4CC(c5ccncc5)C4)ncnc3c12 (stereo not shown) [Compound 15e]
[2]
  hM2 EC50: inactive
[3]
  IC50: 9100 nM
[4]
  IC50: 1500 nM
[5]
  fraction unbound at 6 h, 5 µM: ≤ 0.01
[1]; [12]
  hM4 pEC50: 7.09
  hM4 %ACh Max: 65%
[1]; [13]
  EC50: 0.081 µM
[7]
  CLint scaled at 1 µM: 79 mL/min/kg
  CLhep, human (predicted hepatic clearance): 17 mL/min/kg
[8]
  IC50: 330 nM
[9]
  CLint scaled at 1 µM: 316 mL/min/kg
  CLhep, rat (predicted hepatic clearance): 57 mL/min/kg
[10]
  fraction unbound at 6 h, 5 µM: ≤ 0.01
[11]
  IC50: > 30000 nM
